Reference: patent EP0574185B1, “PGE1 analogs” (NEWPHARMA INTERNATIONAL CORPORATION, priority 1992, dated 1993)

Experiments:
patients = conditions: three or four suppositories of 1 mg at regular intervals; various studies; cited from earlier work
Swiss male mice = test: Motor activity in mice (rota-rod); conditions: 5 mg/kg, i.p. (table); positive control
platelets = conditions: background statement; cited from earlier work

Structure (SMILES)	concentration that inhibits platelets aggregation "in vitro" (platelets) [µM]	other results
CCCCC(C)(C)[C@H](O)/C=C/[C@H]1[C@H](O)CC(=O)[C@@H]1CCCC/C=C/C(=O)OC (relative stereo) [gemeprost, 16,16-dimethyl-trans-Δ^2-PGE1 methyl ester]	–	complete abortions (% of the patients) (patients): more than 90%
CN1C(=O)CN=C(c2ccccc2)c2cc(Cl)ccc21 [Diazepam, reference compound]	–	Fraction (animals fallen before 300 sec/total number of animals) (Swiss male mice): 8/10
CCCCC[C@H](O)/C=C/[C@H]1C(=O)C[C@H](O)[C@@H]1C/C=C\CCCC(=O)O [PGD2]	0.1	–
CCCCC[C@H](O)/C=C/[C@H]1[C@H](O)CC(=O)[C@@H]1CCCCCCC(=O)O [PGE1]	0.1	–
